Measurements: patent publication US4482722A, “Ester of metronidazole with N,N-dimethylglycine and acid addition salt thereof” (A/S Dumex (Dumex Ltd.), priority 1982, dated 1984)
Where “and” joins values, the source holds several entries; their conditions need not be identical. Equal entries are not always repeated. Structures can show the parent of a compound that is named as a salt. Where two headings read alike, the source gives them in different places.

What was measured:
[1] = Hydrolysis to metronidazole in human plasma (in vitro); assay type: in vitro ADME
[2] = Hydrolysis to metronidazole in 0.05M phosphate buffer pH 7.4; assay type: physicochemical; details: pH 7.4, 37° C, read-out: t1/2 in buffer
[3] = compound itself (uncleaved ester); cited from earlier work
[4] = after parenteral administration; cited from earlier work
[5] = cited from earlier work
[6] = Intravenous cross-over study in two beagle dogs, plasma concentrations of ester, metronidazole and metabolites; assay type: in vivo
Excerpt: (§1) To test the assumption that the N,N-dimethylglycine ester would be a suitable water-soluble prodrug of metronidazole for parenteral administration, metronidazole and its N,N-dimethylglycine ester were given intravenously to two beagle dogs in a cross-over study.

[7] = Local tolerance after intravenous injection in dogs; assay type: in vivo, beagle dogs
Excerpt: as §1

[8] = pH of aqueous solutions of the hydrochloride; assay type: physicochemical; details: 1-20% w/v aqueous solutions
[9] = Solubility in water / aqueous solution; assay type: physicochemical
[10] = Initial rate of formation of metronidazole and time to begin precipitation, calculated at 23° C (Table 2); assay type: physicochemical
Protocol: Since t10% for the ester is 73 h at 23° C., the results given in Table 2 indicate that the stability of aqueous solutions of the prodrug ester will only be limited by the potential precipitation of metronidazole formed upon hydrolysis in those cases where the concentration of the ester in aqueous solutions exceeds about 20%.

[11] = Effect of temperature on rate of hydrolysis in acetate buffer pH 4.4 (Arrhenius plot); assay type: physicochemical
Protocol: The effect of temperature on the rate of hydrolysis of metronidazole N,N-dimethylglycinate was studied in 0.05M acetate buffer of pH 4.4 over the temperature range 23°-50° C.
The results obtained are illustrated in FIG. 1 of the drawings. […] Based on the slope of said plot an activation energy of 17.7 kcal mole^-1 was calculated. Based on said Arrhenius type plot the stability of aqueous solutions of the ester may be predicted at various temperatures.

[12] = Hydrolysis in 80% dog plasma in vitro; assay type: in vitro ADME; details: 80% plasma, 37° C
Excerpt: As noted below the rapid and quantitative formation of metronidazole seen after administration of the ester indicate, however, that the rate of ester disappearance is solely or predominantly due to the hydrolytic conversion.

[13] = published data; cited from earlier work
[14] = compared with metronidazole at the same dosage level; cited from earlier work
[15] = 80% plasma, 80% human plasma, pH 7.4, 37° C, read-out: t1/2 in human plasma

What does the source list for `Cc1ncc([N+](=O)[O-])n1CCOC(=O)CCN`?
half-life [1, 15]: 3.45 h; half-life [2]: 5.25 h

Which results are given for `Cc1ncc([N+](=O)[O-])n1CCOC(=O)CCN(C)C`?
half-life [1, 15]: 0.767 h; half-life [2]: 0.867 h

With `Cc1ncc([N+](=O)[O-])n1CCOC(=O)CCCN(C)C` as the compound, how does the half-life [1, 15] read?
Its half-life is 5.57 h.

And the half-life [2]?
The half-life was 9.67 h.

With `Cc1ncc([N+](=O)[O-])n1CCOC(=O)CCC(=O)O` as the compound, how does the “microbiological activity (in words)” value [3] read?
The value was “microbiologically inactive”.

What about the “cleavage of the ester in blood serum (in words)” value [4] of the same compound?
Its value is “very slow”.

What about the “solubility in water (in words)” value ([5]; prior art esters) of the same compound?
The value was “has the required solubility in water”.

With `Cc1ncc([N+](=O)[O-])n1CC(=O)O` [2-Methyl-5-nitroimidazole-1-aceticacid] as the compound, how does the “plasma concentration of metabolite (in words)” value ([6]; dogs, i.v. ester hydrochloride (30 mg/kg metronidazole equivalents) or metronidazole (10 mg/kg)) read?
The value was “could not be detected in measurable concentrations”.

Which half-life [1, 15] does the source give for `Cc1ncc([N+](=O)[O-])n1CCOC(=O)CN1CCN(C)CC1` [4-Methyl-1-piperazinoacetate] here?
Its half-life is 8.72 h.

What about the half-life [2] of the same compound?
Its half-life is 28.7 h.

Which half-life [1, 15] does the source give for `Cc1ncc([N+](=O)[O-])n1CCOC(=O)CN` [Glycinate] here?
Its half-life is 0.683 h.

What about the half-life [2] of the same compound?
Its half-life is 1.92 h.

Which results are given for `Cc1ncc([N+](=O)[O-])n1CCOC(=O)CN(C)C` [Metronidazole N,N-dimethylglycinate hydrochloride]?
signs of pain or local toxicity [7]: No signs of pain or local toxicity; pH of the 1-20% w/v solutions [8]: 4.4-4.6; solubility ([9]; water, 20° C, read-out: solubility in water): > 500000 µg/mL and > 1.7e+06 µM; (d[M]/dt)i, apparent zero-order initial rate of formation of metronidazole ([10]; 50 mg ml^-1 hydrochloride): 0.042 mg/mL/h; tpt, time for metronidazole to begin precipitation ([10]; 50 mg ml^-1 hydrochloride): 238 h; (d[M]/dt)i, apparent zero-order initial rate of formation of metronidazole ([10]; 100 mg ml^-1 hydrochloride): 0.084 mg/mL/h; tpt, time for metronidazole to begin precipitation ([10]; 100 mg ml^-1 hydrochloride): 119 h; (d[M]/dt)i, apparent zero-order initial rate of formation of metronidazole ([10]; 200 mg ml^-1 hydrochloride): 0.168 mg/mL/h; tpt, time for metronidazole to begin precipitation ([10]; 200 mg ml^-1 hydrochloride): 60 h; (d[M]/dt)i, apparent zero-order initial rate of formation of metronidazole ([10]; 300 mg ml^-1 hydrochloride): 0.252 mg/mL/h; tpt, time for metronidazole to begin precipitation ([10]; 300 mg ml^-1 hydrochloride): 40 h; conversion to metronidazole (in words) ([6]; i.v., dogs): rapidly and completely converted to metronidazole

Which half-life [1, 15] does the source give for `CCCNCC(=O)OCCn1c([N+](=O)[O-])cnc1C` [N--Propylglycinate] here?
Its half-life is 0.133 h.

What about the half-life [2] of the same compound?
Its half-life is 1.5 h.

For `Cc1ncc([N+](=O)[O-])n1CCOC(=O)CN(C)C` [metronidazole N,N-dimethylglycinate], which half-life [1, 15] is on record?
Its half-life is 0.2 h.

And the half-life ([1]; human plasma or blood, in vitro, read-out: half-life of hydrolysis in human plasma or blood)?
The half-life was 0.15 to 0.2 h.

And the half-life [2]?
The half-life was 4.17 h.

What about the “activation energy of hydrolysis” value ([11]; 0.05M acetate buffer pH 4.4, 23°-50° C, Arrhenius plot) of the same compound?
The value was 17.7 kcal/mol.

What about the “t10% (time in which 10% of the ester is degraded)” value ([11]; pH 4.4, 4° C) of the same compound?
The value was 576 h.

And the “t10% (time in which 10% of the ester is degraded)” value ([11]; pH 4.4, 15° C)?
Its value is 166 h.

And the “t10% (time in which 10% of the ester is degraded)” value ([11]; pH 4.4, 23° C)?
Its value is 73 h.

What about the half-life [12] of the same compound?
The half-life was 0.417 h.

And the “half-life of disappearance of the ester in dogs” value ([6]; i.v. hydrochloride, 30 mg/kg metronidazole equivalents, one value per dog, 30 mg/kg)?
The value was “approximately 3 min and ~7 min”.

What about the “hydrolysis in the dogs (in words)” value ([6]; i.v., 30 mg/kg metronidazole equivalents) of the same compound?
The value was “hydrolyzed rapidly”.

What about the “pattern of metabolite formation (in words)” value ([6]; i.v., dogs, compared with injection of metronidazole) of the same compound?
Its value is “quite similar to that observed after injection of metronidazole”.

With `Cc1ncc([N+](=O)[O-])n1CCO` [metronidazole] as the compound, how does the solubility ([9]; aqueous solution, pH>3, 25° C, read-out: solubility in aqueous solutions) read?
The solubility was 10000 µg/mL and 58000 µM.

What about the “solubility in an aqueous solution” value ([5]; background statement) of the same compound?
Its value is “about 100 mg/10 ml”.

What about the “solubility augmented by solubilizers” value ([5]; with gentisic acid (1:4) or with co-solvents (prior art)) of the same compound?
Its value is 500-650 mg/10 ml.

For `Cc1ncc([N+](=O)[O-])n1CCOP(=O)(O)O` [phosphate ester], which “rate of conversion to metronidazole in vivo (in words)” value [13] is on record?
The value was “rather slow rate of conversion to metronidazole in vivo”.

What about the “bioavailability of metronidazole to rats (in words)” value [14] of the same compound?
The value was “significantly lower than that obtained with metronidazole at the same dosage level”.
